These results are taken from US12344610B2, “APOL1 inhibitors and methods of use” (Maze Therapeutics, Inc., priority 2022, dated 2025).

Where only a bound is given, the exact number is not on record here.

Format in all cases: cell-based
Experiment [1] deals with HEK293 clonal cell line overexpressing APOL1 G1. The experiment in a line: APOL1 G1 HEK293 cell rescue assay (Example B3). To be noted: Homo sapiens, HEK293, HEK293 clonal line overexpressing APOL1 G1; geometric mean of at least 2 runs; † = single run; ¥ = concentration at 50% rescue estimated (no sigmoidal curve). An outline of the steps: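 HEK293 clonal line overexpressing APOL1 G1; EC50 is half-maximal reversal of APOL1-induced cell death. Values are the geometric mean of ≥2 runs on separate days, each run the average of duplicate wells. Where no sigmoidal curve could be fitted, the concentration giving 50% rescue was estimated.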

Experiment [2] deals with Trypanosoma brucei Lister 427 VSG221 with APOL1 G0 recombinant protein. Put plainly: APOL1 G0 trypanosome cell rescue assay (Example B5). To be noted: Trypanosoma brucei, 20 h, read-out: APOL1 G0 Trypanosome Rescue EC50, Trypanosoma brucei Lister 427 VSG221 with APOL1 G0 recombinant protein, 20 hours, CellTiter-Glo; geometric mean of at least 2 assay runs; † = single assay run. The method in brief:
(§1)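 Compounds in duplicate 2-fold, 11-point series with 0.4% DMSO final. Next, tag-free mature APOL1 variant protein went in from a 2 μg/mL solution, then trypanosomes to 250 per well. Plates incubated 20 h humidified at 37° C, equilibrated to room temperature, and CellTiter-Glo added for luminescence.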
(ATP-based viability assays read luminescence as a measure of living cells.)

The test system of experiment [3] is Trypanosoma brucei Lister 427 VSG221 with APOL1 G1 recombinant protein. Put plainly: APOL1 G1 trypanosome cell rescue assay (Example B5). To be noted: Trypanosoma brucei, 20 h, read-out: APOL1 G1 Trypanosome Rescue EC50, Trypanosoma brucei Lister 427 VSG221 with APOL1 G1 recombinant protein, 20 hours, CellTiter-Glo; geometric mean of at least 2 assay runs; † = single assay run. An outline of the steps: as §1

Experiment [4] has as its system Trypanosoma brucei Lister 427 VSG221 with APOL1 G2 recombinant protein. The experiment in a line: APOL1 G2 trypanosome cell rescue assay (Example B5). To be noted: Trypanosoma brucei, 20 h, read-out: APOL1 G2 Trypanosome Rescue EC50, Trypanosoma brucei Lister 427 VSG221 with APOL1 G2 recombinant protein, 20 hours, CellTiter-Glo; geometric mean of at least 2 assay runs; † = single assay run. An outline of the steps:
as §1

On to `CN=S(C)(=O)c1ccc(OCCN2CCC3(CC2)C(=O)Nc2ccc(C#N)cc23)cc1` (stereo not shown) [Compound 150, 1′-(2-{4-[methyl(methylimino)oxo-λ^6-sulfanyl]phenoxy}ethyl)-2-oxo-1,2-dihydrospiro[indole-3,4′-piperidine]-5-carbonitrile], for which the EC50 was 1540 nM in experiment [1], 1440 nM in experiment [2], 2290 nM in experiment [3] and 519 nM in experiment [4].
In the same order, the values of `CN1CCc2cc(OCCN3CCC4(CC3)C(=O)Nc3ccc(Cl)cc34)ccc2S1(=O)=O` [Compound 153, 6-(2-{5-chloro-2-oxo-1,2-dihydrospiro[indole-3,4′-piperidin]-1′-yl}ethoxy)-2-methyl-3,4-dihydro-2H-1λ^6,2-benzothiazine-1,1-dione] are 96.2 nM, 52.2 nM, 66.7 nM and 25.6 nM.
In the same order, the values of `CN1CCc2cc(OCCN3CCC4(CC3)C(=O)Nc3ccc(C#N)cc34)ccc2S1(=O)=O` [Compound 154, 1′-{2-[(2-methyl-1,1-dioxo-3,4-dihydro-2H-1λ^6,2-benzothiazin-6-yl)oxy]ethyl}-2-oxo-1,2-dihydrospiro[indole-3,4′-piperidine]-5-carbonitrile] are 252 nM, 328 nM, 569 nM and 160 nM.
In the same order, the values of `CS(=O)(=O)c1ccc(OCCN2CCC3(CC2)C(=O)Nc2ccc(Cl)cc23)cc1Cl` [Compound 155, 5-chloro-1′-[2-(3-chloro-4-methanesulfonylphenoxy)ethyl]-1,2-dihydrospiro[indole-3,4′-piperidin]-2-one] are 67 nM, 25.9 nM, 36.1 nM and 9.65 nM.
Take `CS(=O)(=O)c1ccc(OCCN2CCC3(CC2)C(=O)Nc2ccc(C#N)cc23)cc1Cl` [Compound 156, 1′-[2-(3-chloro-4-methanesulfonylphenoxy)ethyl]-2-oxo-1,2-dihydrospiro[indole-3,4′-piperidine]-5-carbonitrile]: the EC50 in experiment [1] was 153 nM; in experiment [2], 96.6 nM; in experiment [3] it was 154 nM; in experiment [4] it was 44.8 nM.
In the same order, the values of `CC(C)(C#N)c1ccc(OCCN2CCC3(CC2)C(=O)Nc2ccc(C#N)cc23)cc1` [Compound 157, 1′-{2-[4-(1-cyano-1-methylethyl)phenoxy]ethyl}-2-oxo-1,2-dihydrospiro[indole-3,4′-piperidine]-5-carbonitrile] are 152 nM, 109 nM, 142 nM and 45.1 nM.
In the same order, the values of `CC1(S(=O)(=O)c2ccc(OCCN3CCC4(CC3)C(=O)Nc3ccc(Cl)cc34)cn2)COC1` [Compound 158, 5-chloro-1′-[2-({6-[(3-methyloxetan-3-yl)sulfonyl]pyridin-3-yl}oxy)ethyl]-1,2-dihydrospiro[indole-3,4′-piperidin]-2-one] are 252 nM, 94.2 nM, 142 nM and 45.9 nM.
Take `CS(=O)(=O)C1(c2ccc(OCCN3CCC4(CC3)C(=O)N(CCO)c3ccc(Cl)cc34)cc2)COC1` [Compound 160, 5-chloro-1-(2-hydroxyethyl)-1′-{2-[4-(3-methanesulfonyloxetan-3-yl)phenoxy]ethyl}-1,2-dihydrospiro[indole-3,4′-piperidin]-2-one]: the EC50 in experiment [1] is 244 nM; in experiment [2], 109 nM; in experiment [3], 156 nM; in experiment [4], 42.3 nM.
The corresponding values for `Cc1cc(OCCN2CCC3(CC2)C(=O)Nc2ccc(Cl)cc23)cnc1S(C)(=O)=O` [Compound 161, 5-chloro-1′-{2-[(6-methanesulfonyl-5-methylpyridin-3-yl)oxy]ethyl}-1,2-dihydrospiro[indole-3,4′-piperidin]-2-one] are 135 nM, 76.3 nM, 107 nM and 33.3 nM.
In the same order, the values of `O=C1CCc2cc(OCCN3CCC4(CC3)C(=O)Nc3ccc(Cl)cc34)ccc2N1CCO` [Compound 162, 5-chloro-1′-(2-{[1-(2-hydroxyethyl)-2-oxo-1,2,3,4-tetrahydroquinolin-6-yl]oxy}ethyl)-1,2-dihydrospiro[indole-3,4′-piperidin]-2-one] are 174 nM, 143 nM, 142 nM and 50.9 nM.
The corresponding values for `CS(=O)(=O)c1ccc(OCCN2CCC3(CC2)C(=O)Nc2ccc(Cl)cc23)cc1OC(F)F` [Compound 163, 5-chloro-1′-{2-[3-(difluoromethoxy)-4-methanesulfonylphenoxy]ethyl}-1,2-dihydrospiro[indole-3,4′-piperidin]-2-one] are 113 nM, 55.9 nM, 90 nM and 21.2 nM.
On to `CS(=O)(=O)c1ccc(OCCN2CCC3(CC2)C(=O)Nc2ccc(C#N)cc23)cc1OC(F)F` [Compound 164, 1′-{2-[3-(difluoromethoxy)-4-methanesulfonylphenoxy]ethyl}-2-oxo-1,2-dihydrospiro[indole-3,4′-piperidine]-5-carbonitrile], for which the concentration for a half-maximal effect (EC50) in experiment [1] is 316 nM; in experiment [2], 211 nM; in experiment [3], 349 nM; in experiment [4] it was 87.1 nM.
In the same order, the values of `CS(=O)(=O)C1(c2ccc(OCCN3CCC4(CC3)C(=O)Nc3ccc(Cl)cc34)cc2C(F)(F)F)COC1` [Compound 165, 5-chloro-1′-{2-[4-(3-methanesulfonyloxetan-3-yl)-3-(trifluoromethyl)phenoxy]ethyl}-1,2-dihydrospiro[indole-3,4′-piperidin]-2-one] are 59 nM, 28.7 nM, 33.8 nM and 11.1 nM.
In the same order, the values of `CS(=O)(=O)C1(c2ccc(OCCN3CCC4(CC3)C(=O)Nc3ccc(C#N)cc34)cc2C(F)(F)F)COC1` [Compound 166, 1′-{2-[4-(3-methanesulfonyloxetan-3-yl)-3-(trifluoromethyl)phenoxy]ethyl}-2-oxo-1,2-dihydrospiro[indole-3,4′-piperidine]-5-carbonitrile] are 163 nM, 94 nM, 112 nM and 33.8 nM.
Consider `O=C1Nc2ccc(Cl)cc2C12CCN(CCOc1ccc3c(c1)CCNS3(=O)=O)CC2` [Compound 167, 6-(2-{5-chloro-2-oxo-1,2-dihydrospiro[indole-3,4′-piperidin]-1′-yl}ethoxy)-3,4-dihydro-2H-1λ^6,2-benzothiazine-1,1-dione], for which the EC50 in experiment [1] was 138 nM; in experiment [2], 98.4 nM; in experiment [3] it was 148 nM; in experiment [4] it was 35 nM.
In the same order, the values of `N#Cc1ccc2c(c1)C1(CCN(CCOc3ccc4c(c3)CCNS4(=O)=O)CC1)C(=O)N2` [Compound 168, 1′-{2-[(1,1-dioxo-3,4-dihydro-2H-1λ^6,2-benzothiazin-6-yl)oxy]ethyl}-2-oxo-1,2-dihydrospiro[indole-3,4′-piperidine]-5-carbonitrile] are > 7840 nM, 496 nM, 638 nM and 191 nM.
In the same order, the values of `CN1C(=O)Cc2cc(OCCN3CCC4(CC3)C(=O)Nc3ccc(C#N)cc34)cc(F)c21` [Compound 169, 1′-{2-[(7-fluoro-1-methyl-2-oxo-2,3-dihydro-1H-indol-5-yl)oxy]ethyl}-2-oxo-1,2-dihydrospiro[indole-3,4′-piperidine]-5-carbonitrile] are 1030 nM, 619 nM, 918 nM and 295 nM.
In the same order, the values of `CC1(Oc2ncc(OCCN3CCC4(CC3)C(=O)Nc3ccc(Cl)cc34)cn2)COC1` [Compound 172, 5-chloro-1′-[2-({2-[(3-methyloxetan-3-yl)oxy]pyrimidin-5-yl}oxy)ethyl]-1,2-dihydrospiro[indole-3,4′-piperidin]-2-one] are 188 nM, 246 nM, 353 nM and 108 nM.
For the molecule `CCS(=O)(=O)C1(c2ccc(OCCN3CCC4(CC3)C(=O)Nc3ccc(C#N)cc34)cc2)COC1` [Compound 174, 1′-(2-{4-[3-(ethanesulfonyl)oxetan-3-yl]phenoxy}ethyl)-2-oxo-1,2-dihydrospiro[indole-3,4′-piperidine]-5-carbonitrile], the EC50 in experiment [1] is 253 nM; in experiment [2] it was 401 nM; in experiment [3], 481 nM; in experiment [4], 137 nM.

Broadly, the EC50 is the concentration giving half of the maximal effect.
